Counter-ions that a name gives are not always drawn.

Our source for the Ki values is patent US8853196B2, “Aminochromane, aminothiochromane and amino-1,2,3,4-tetrahydroquinoline derivatives, pharmaceutical compositions containing them, and their use in therapy” (AbbVie Deutschland GmbH & Co. KG, priority 2011, dated 2014).

This experiment has as its target T1, human GlyT1c transporter (Homo sapiens, UniProt P48067).
T1 construct: expressed in transfected cells; host or cells: CHO cells (recombinant; membranes)
T1 sequence (P48067 1-706): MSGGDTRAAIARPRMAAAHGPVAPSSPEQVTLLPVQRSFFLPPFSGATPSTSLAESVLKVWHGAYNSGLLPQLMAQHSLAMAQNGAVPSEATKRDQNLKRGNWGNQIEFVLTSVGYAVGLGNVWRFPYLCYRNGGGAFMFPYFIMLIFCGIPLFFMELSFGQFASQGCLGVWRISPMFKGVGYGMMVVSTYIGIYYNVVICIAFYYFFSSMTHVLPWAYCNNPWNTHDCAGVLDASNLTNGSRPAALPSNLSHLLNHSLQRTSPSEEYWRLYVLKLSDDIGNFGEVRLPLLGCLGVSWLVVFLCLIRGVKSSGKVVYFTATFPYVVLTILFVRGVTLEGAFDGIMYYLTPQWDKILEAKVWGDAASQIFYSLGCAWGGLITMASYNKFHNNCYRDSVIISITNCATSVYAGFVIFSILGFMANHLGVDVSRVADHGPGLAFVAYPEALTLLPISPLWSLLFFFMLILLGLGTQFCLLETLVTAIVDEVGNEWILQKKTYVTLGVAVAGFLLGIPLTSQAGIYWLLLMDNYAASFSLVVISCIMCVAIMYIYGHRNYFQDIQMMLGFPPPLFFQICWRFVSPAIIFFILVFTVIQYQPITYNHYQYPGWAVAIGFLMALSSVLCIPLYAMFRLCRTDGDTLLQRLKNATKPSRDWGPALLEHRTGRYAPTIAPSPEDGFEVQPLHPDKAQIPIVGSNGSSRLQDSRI
The experiment in a line: Radioligand binding assay using recombinant CHO cell membranes expressing human GlyT1. As to conditions: values given as upper bounds, read-out: radioligand binding Kiapp. As to the method: 2. Radioligand Binding Assays Using Recombinant CHO Cell Membranes Expressing Human GlyT1:
Radioligand binding to human GlyT1c transporter-expressing membranes was determined as described in Mezler et al., Molecular Pharmacology 74:1705-1715, 2008.
`CCS(=O)(=O)NCCOc1ccc2c(c1)[C@@H](Cc1ccccc1)[C@H](NC)C(C)(C)O2` (relative stereo) [Example 73, trans-Ethanesulfonic acid [2-(-4-benzyl-2,2-dimethyl-3-methylamino-chroman-6-yloxy)-ethyl]-amide]: the Ki is no more than 1000 nM. In the case of `O=S(=O)(CC1CC1)NCCOc1ccc2c(c1)[C@H](Cc1ccccc1)[C@H](N1CCC1)CO2` (relative stereo) [Example 11, cis-N-[2-(3-Azetidin-1-yl-4-benzyl-chroman-6-yloxy)-ethyl]-C-cyclopropyl-methanesulfonamide] it was no more than 1000 nM. Turning to `Cn1cnc(S(=O)(=O)NCc2ccc3c(c2)[C@H](Cc2ccccc2)[C@H](NCC(C)(C)C)CO3)c1` (relative stereo) [Example 36, cis-N-((-4-benzyl-3-(neopentylamino)chroman-6-yl)methyl)-1-methyl-1H-imidazole-4-sulfonamide 2,2,2-trifluoroacetate], the Ki was no more than 100 nM. As for `CN[C@@H]1COc2ccc(CNS(=O)(=O)c3cnn(C)c3)cc2[C@H]1Cc1ccccc1` (relative stereo) [Example 6b, trans-N-{[-4-benzyl-3-(methylamino)-3,4-dihydro-2H-chromen-6-yl]methyl}-1-methyl-1H-pyrazole-4-sulfonamide], the Ki was no more than 10 nM. For `CCCS(=O)(=O)NCc1ccc2c(c1)[C@H](Cc1ccccc1)[C@H](NC)CO2` (relative stereo) [Example 7a, cis-N-{[4-Benzyl-3-(methylamino)-3,4-dihydro-2H-chromen-6-yl]methyl}propane-1-sulfonamide], the Ki was no more than 10 nM. The same measure for `CCS(=O)(=O)NCc1ccc2c(c1)[C@H](Cc1ccccc1)[C@H](N)CO2` (relative stereo) [Example 23, cis-Ethanesulfonic acid (3-amino-4-benzyl-chroman-6-ylmethyl)-amide]: no more than 100 nM. As to `CCC(C)S(=O)(=O)NCc1ccc2c(c1)C(Cc1ccccc1)C(N)CO2` (stereo not shown) [Example 47, Butane-2-sulfonic acid (3-amino-4-benzyl-chroman-6-ylmethyl)-amide 2,2,2-trifluoroacetate], the Ki is no more than 100 nM. For `CC(C)CCN[C@@H]1COc2ccc(CNS(=O)(=O)c3cn(C)cn3)cc2[C@@H]1Cc1ccccc1` (relative stereo) [Example 39, cis-N-((-4-benzyl-3-(isopentylamino)chroman-6-yl)methyl)-1-methyl-1H-imidazole-4-sulfonamide 2,2,2-trifluoroacetate], the Ki was no more than 10 nM. For the compound `Cn1cnc(S(=O)(=O)NCc2ccc3c(c2)[C@H](Cc2ccccc2)[C@H](N)CO3)c1` (relative stereo) [Example 12, cis-1-Methyl-1H-imidazole 4-sulfonic acid (3-amino-4-benzyl-chroman-6-ylmethyl)-amide], the Ki was no more than 10 nM. `Cc1ncc(S(=O)(=O)NCc2ccc3c(c2)C(Cc2ccccc2)C(N)CO3)n1C` (stereo not shown) [Example 58, 2,3-Dimethyl-3H-imidazole-4-sulfonic acid (3-amino-4-benzyl-chroman-6-ylmethyl)-amide 2,2,2-trifluoroacetate]: the Ki was no more than 1000 nM. The same measure for `CC(C)CS(=O)(=O)NCc1ccc2c(c1)C(Cc1ccccc1)C(N)CO2` (stereo not shown) [Example 51, 2-Methyl-propane-1-sulfonic acid (3-amino-4-benzyl-chroman-6-ylmethyl)-amide 2,2,2-trifluoroacetate]: no more than 10000 nM; for `CN[C@@H]1COc2ccc(CNS(=O)(=O)C3CCC3)cc2[C@H]1Cc1ccccc1` (relative stereo) [Example 26, trans-Cyclobutanesulfonic acid (4-benzyl-3-methylamino-chroman-6-ylmethyl)-amide]: no more than 1000 nM.

For the compound `Cn1cnc(S(=O)(=O)NCCOc2ccc3c(c2)[C@H](Cc2ccccc2)[C@H](N2CCC2)CO3)c1` (relative stereo) [Example 10, cis-1-Methyl-1H-imidazole-4-sulfonic acid [2-(3-azetidin-1-yl-4-benzyl-chroman-6-yloxy)-ethyl]-amide], the Ki was no more than 10 nM. As for `CCCS(=O)(=O)NCc1ccc2c(c1)C(Cc1ccccc1)C(N1CCC1)CO2` (stereo not shown) [Example 20, Propane-1-sulfonic acid (3-azetidin-1-yl-4-benzyl-chroman-6-ylmethyl)-amide; trifluoro-acetic acid salt], the Ki was no more than 100 nM. As to `Cc1ccc(S(=O)(=O)NCc2ccc3c(c2)C(Cc2ccccc2)C(N)CO3)o1` (stereo not shown) [Example 52, 5-Methyl-furan-2-sulfonic acid (3-amino-4-benzyl-chroman-6-ylmethyl)-amide 2,2,2-trifluoroacetate], the Ki is no more than 1000 nM. Regarding `CCS(=O)(=O)NCc1cc2c(cc1F)OC[C@@H](NC)[C@@H]2Cc1ccccc1` (relative stereo) [Example 28, trans-Ethanesulfonic acid (-4-benzyl-7-fluoro-3-methylamino-chroman-6-ylmethyl)-amide], the Ki was no more than 100 nM. As for `NC1COc2ccc(CNS(=O)(=O)c3ccoc3)cc2C1Cc1ccccc1` (stereo not shown) [Example 54, Furan-3-sulfonic acid (3-amino-4-benzyl-chroman-6-ylmethyl)-amide 2,2,2-trifluoroacetate], the Ki was no more than 100 nM. In the case of `CCS(=O)(=O)NCc1ccc2c(c1)[C@@H](Cc1ccccc1)[C@H](N)CO2` (relative stereo) [Example 24, trans-Ethanesulfonic acid (3-amino-4-benzyl-chroman-6-ylmethyl)-amide], the Ki is no more than 100 nM. Turning to `Cn1cnc(S(=O)(=O)NCc2ccc3c(c2)[C@H](Cc2ccccc2)[C@H](NCC2CCCC2)CO3)c1` (relative stereo) [Example 40, cis-N-((-4-benzyl-3-((cyclopentylmethyl)amino)chroman-6-yl)methyl)-1-methyl-1H-imidazole-4-sulfonamide 2,2,2-trifluoroacetate], the Ki was no more than 100 nM.

Turning to `CCn1cc(S(=O)(=O)NCc2ccc3c(c2)C(Cc2ccccc2)C(N)CO3)cn1` (stereo not shown) [Example 57, 1-Ethyl-1H-pyrazole-4-sulfonic acid (3-amino-4-benzyl-chroman-6-ylmethyl)-amide 2,2,2-trifluoroacetate], the Ki is no more than 1000 nM. As to `CCCS(=O)(=O)NCc1ccc2c(c1)[C@@H](Cc1ccccc1)[C@H](N)CO2` (relative stereo) [Example 72, trans-Propane-1-sulfonic acid (-3-amino-4-benzyl-chroman-6-ylmethyl)-amide], the Ki was no more than 100 nM. Regarding `CN[C@@H]1COc2cc(F)c(CNS(=O)(=O)c3cn(C)cn3)cc2[C@@H]1Cc1ccccc1` (relative stereo) [Example 31, cis-1-Methyl-1H-imidazole-4-sulfonic acid (-4-benzyl-7-fluoro-3-methylamino-chroman-6-ylmethyl)-amide], the Ki was no more than 100 nM.

For the compound `Cn1cc(S(=O)(=O)NCc2ccc3c(c2)[C@H](Cc2ccccc2)[C@H](N2CCCC2)CO3)cn1` (relative stereo) [Example 66, cis-1-Methyl-1H-pyrazole-4-sulfonic acid (-4-benzyl-3-pyrrolidin-1-yl-chroman-6-ylmethyl)-amide], the Ki is no more than 10 nM. For `CCS(=O)(=O)NCCOc1cc2c(cc1F)OC[C@@H](NC)[C@H]2Cc1ccccc1` (relative stereo) [Example 29, cis-Ethanesulfonic acid [2-(-4-benzyl-7-fluoro-3-methylamino-chroman-6-yloxy)-ethyl]-amide], the Ki was no more than 100 nM. In the case of `O=S(=O)(CC1CC1)NCc1ccc2c(c1)[C@H](Cc1ccccc1)[C@H](N1CCCC1)CO2` (relative stereo) [Example 65, cis-N-(-4-Benzyl-3-pyrrolidin-1-yl-chroman-6-ylmethyl)-C-cyclopropyl-methanesulfonamide] it was no more than 10 nM; in that of `CCCS(=O)(=O)NCCOc1ccc2c(c1)[C@@H](Cc1ccccc1)[C@H](NC)C(C)(C)O2` (relative stereo) [Example 75, trans-Propane-1-sulfonic acid (2-(-4-benzyl-2,2-dimethyl-3-methylamino-chroman-6-yloxy)-ethyl]-amide], no more than 1000 nM; in that of `Cn1cnc(S(=O)(=O)NCc2ccc3c(c2)[C@H](Cc2ccccc2)[C@H](NCCC2CC2)CO3)c1` (relative stereo) [Example 33, cis-N-((-4-benzyl-3-((2-cyclopropylethyl)amino)chroman-6-yl)methyl)-1-methyl-1H-imidazole-4-sulfonamide 2,2,2-trifluoroacetate], no more than 10 nM. For `Cn1cnc(S(=O)(=O)NCc2ccc3c(c2)[C@@H](Cc2ccccc2)[C@@H](NCC2CCCCC2)CO3)c1` (relative stereo) [Example 22, cis-1-Methyl-1H-imidazole-4-sulfonic acid [4-benzyl-3-(cyclohexylmethyl-amino)-chroman-6-lmethyl]-amide; trifluoro-acetic acid salt], the Ki is no more than 10 nM.
